Measured values taken from patent US8034931B2, “Process for producing substituted aminoquinazolinone derivative, intermediate therefor, and pest control agent” (Nihon Nohyaku Co., Ltd., priority 2003, dated 2011).

Legend:
Type in all cases: in vivo
[1] = test system: White Peach Scale (Pseudaulacaspis pentagona); assay: Insecticidal effect on white peach scale, sprayed potato tuber (Test Examples 3 and 5); details: 100 ppm liquid chemical, potato tuber with first-instar larvae, fourteen days after the treatment
Source text: Insecticidal Effect on White Peach Scale (Pseudaulacaspis pentagona)
A preparation containing each compound of the present invention listed in Tables 2 to 4 or each comparative compound as an active ingredient was dispersed in and diluted with water to obtain a 100 ppm liquid chemical. A potato tuber with first-instar larvae of white peach scale as parasites was sprayed with the liquid chemical with a spray gun. Fourteen days after the treatment, the living insects were counted. In the same manner as in Test Example 2, the corrected mortality was calculated and the insecticidal effect was judged.
Insecticidal Effect on White Peach Scale (Pseudaulacaspis pentagona) at a Low Dosage
The same test as in Test Example 3 was carried out except for changing the concentration of the liquid chemical to 30 ppm.

[2] = test system: Green Peach Aphid (Myzus persicae); assay: Insecticidal effect on green peach aphid, foliar spray on potted Chinese cabbage (Test Example 1); details: 500 ppm liquid chemical, sprayed on Chinese cabbage stalks and leaves, six days after the spraying
Source text: Insecticidal Effect on Green Peach Aphid (Myzus persicae)
A Chinese cabbage plant was planted in each of plastic pots with a diameter of 8 cm and a height of 8 cm, and green peach aphids were propagated on the plant, after which the parasites in each pot were counted. A preparation containing each compound of the present invention listed in Tables 2 to 4 or each comparative compound as an active ingredient was dispersed in and diluted with water to obtain a 500 ppm liquid chemical. The stalks and leaves of the potted Chinese cabbage plants were sprayed with the liquid chemical and air-dried, and then the pots were stored in a greenhouse. Six days after the spraying, green peach aphids parasitic on each Chinese cabbage plant were counted and the control efficacy was calculated by the following equation, whereby the insecticidal effect was judged according to the criterion shown below. Control efficacy=100−{(T×Ca)/(Ta×C)}×100 • Ta: number of parasites before spraying in treated group, • T: number of parasites after spraying in treated group, • Ca: number of parasites before spraying in untreated group, • C: number of parasites after spraying in untreated group.

[3] = test system: Greenhouse Whitefly (Trialeuroddes vaporariorum); assay: Insecticidal effect on greenhouse whitefly, sprayed tomato leaf (Test Examples 2 and 4); details: 100 ppm liquid chemical, sprayed tomato leaf, 20 adult whiteflies, four days after the inoculation
Source text: Insecticidal Effect on Greenhouse Whitefly (Trialeuroddes vaporariorum)
A preparation containing each compound of the present invention listed in Tables 2 to 4 or each comparative compound as an active ingredient was dispersed in and diluted with water to obtain a 100 ppm liquid chemical. A tomato leaf set in a 20-ml vial with its stalk immersed in water was sprayed with the liquid chemical with a spray gun on a turntable. After air-dryness, the treated leaf was placed in a glass cylinder and inoculated with 20 adult greenhouse whiteflies. After the treatment, the glass cylinder was placed in a greenhouse. Four days after the inoculation, the living insects were counted. The corrected mortality was calculated according to the following equation and the insecticidal effect was judged according to the criterion shown below.
[formula] Criterion for Judgment:
Insecticidal Effect on Greenhouse (Trialeuroddes vaporariorum) at a Low Dosage
The same test as in Test Example 2 was carried out except for changing the concentration of the liquid chemical to 3 ppm.

SMILES	Test Example 3: insecticidal effect (corrected mortality) [1]	Test Example 1: insecticidal effect (control efficacy) [2]	Test Example 2: insecticidal effect (corrected mortality) [3]
O=C(c1cccc(C(F)(F)F)c1)N1C(=O)N(N=Cc2cccnc2)Cc2cc(C(F)(C(F)(F)F)C(F)(F)F)ccc21 [compound 26]	A (Corrected mortality 100%)	A (Control efficacy 100%)	A (Corrected mortality 100%)
O=C(c1ccc(C(F)(F)F)cc1)N1C(=O)N(N=Cc2cccnc2)Cc2cc(C(F)(C(F)(F)F)C(F)(F)F)ccc21 [compound 27]	A (Corrected mortality 100%)	A (Control efficacy 100%)	A (Corrected mortality 100%)
O=C(c1ccc(F)cc1)N1C(=O)N(N=Cc2cccnc2)Cc2cc(C(F)(C(F)(F)F)C(F)(F)F)ccc21 [compound 28]	A (Corrected mortality 100%)	A (Control efficacy 100%)	A (Corrected mortality 100%)
COc1ccccc1C(=O)N1C(=O)N(N=Cc2cccnc2)Cc2cc(C(F)(C(F)(F)F)C(F)(F)F)ccc21 [compound 29]	A (Corrected mortality 100%)	A (Control efficacy 100%)	A (Corrected mortality 100%)
Cc1cccc(C(=O)N2C(=O)N(N=Cc3cccnc3)Cc3cc(C(F)(C(F)(F)F)C(F)(F)F)ccc32)c1 [compound 30]	A (Corrected mortality 100%)	A (Control efficacy 100%)	A (Corrected mortality 100%)
O=C(c1ccc(Cl)c(Cl)c1)N1C(=O)N(N=Cc2cccnc2)Cc2cc(C(F)(C(F)(F)F)C(F)(F)F)ccc21 [compound 31]	A (Corrected mortality 100%)	A (Control efficacy 100%)	A (Corrected mortality 100%)
O=C(c1ccc(-c2ccccc2)cc1)N1C(=O)N(N=Cc2cccnc2)Cc2cc(C(F)(C(F)(F)F)C(F)(F)F)ccc21 [compound 32]	A (Corrected mortality 100%)	A (Control efficacy 100%)	A (Corrected mortality 100%)
CN1C(=O)N(N=Cc2cccnc2)Cc2cc(C(F)(C(F)(F)F)C(F)(F)F)ccc21 [compound No. 1, 1-methyl-3-(3-pyridylmethylideneamino)-3,4-dihydro-6-[1,2,2,2-tetrafluoro-1-(trifluoromethyl)ethyl]-2(1H)-quinazolinone]	A (Corrected mortality 100%)	A (Control efficacy 100%)	A (Corrected mortality 100%)
CCCN1C(=O)N(N=Cc2cccnc2)Cc2cc(C(F)(C(F)(F)F)C(F)(F)F)ccc21 [compound No. 3]	A (Corrected mortality 100%)	A (Control efficacy 100%)	A (Corrected mortality 100%)
CC(=O)N1C(=O)N(N=Cc2cccnc2)Cc2cc(C(F)(C(F)(F)F)C(F)(F)F)ccc21 [compound No. 8, 1-acetyl-3-(3-pyridylmethylideneamino)-3,4-dihydro-6-[1,2,2,2-tetrafluoro-1-(trifluoromethyl)ethyl]-2(1H)-quinazolinone]	A (Corrected mortality 100%)	A (Control efficacy 100%)	A (Corrected mortality 100%)
O=C(c1cccc2ccccc12)N1C(=O)N(N=Cc2cccnc2)Cc2cc(C(F)(C(F)(F)F)C(F)(F)F)ccc21 [compound No. 33]	A (Corrected mortality 100%)	A (Control efficacy 100%)	A (Corrected mortality 100%)
